Assay [1] addresses T1, human β2 adrenergic receptor (Homo sapiens, UniProt P07550).
T1 construct: expressed in transfected cells; host or cells: CHO-K1
The assay is described as follows: Whole-cell cAMP Flashplate assay using CHO-K1 cells stably expressing human β2 adrenergic receptor. Format: cell-based. To be noted: cAMP production. On the technique in general: Changes in cAMP serve as a functional read-out for many G protein-coupled receptors.

Assay [2] addresses T2, human M3 muscarinic receptor (Homo sapiens, UniProt P20309).
T2 construct: expressed in transfected cells; host or cells: CHO-K1
The assay can be described thus: Inhibitory effect on methacholine-induced calcium influx, FLIPR assay, CHO-K1 cells stably expressing the human M3 muscarinic receptor. To be noted: inhibition of calcium influx induced by methacholine. In kind it is cell-based. In a few lines:
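Dye-loaded hM3 CHO-K1 cells were preincubated 180 s with compound solutions prepared at 10 two-fold concentrations (0.01–1000 nM). A 30 nM methacholine solution was then added. Fluorescence was traced for 170 s; max−min signal gave % inhibition against agonist and no-agonist controls, and IC50 came from a four-parameter logistic fit.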

Results on 16 compounds are retold here after patent US9072734B2, “Quaternary ammonium salt compounds” (Teijin Pharma Limited, priority 2009, dated 2015).

Counter-ions that a name gives are not always drawn.

T1 sequence (P07550 whole entry): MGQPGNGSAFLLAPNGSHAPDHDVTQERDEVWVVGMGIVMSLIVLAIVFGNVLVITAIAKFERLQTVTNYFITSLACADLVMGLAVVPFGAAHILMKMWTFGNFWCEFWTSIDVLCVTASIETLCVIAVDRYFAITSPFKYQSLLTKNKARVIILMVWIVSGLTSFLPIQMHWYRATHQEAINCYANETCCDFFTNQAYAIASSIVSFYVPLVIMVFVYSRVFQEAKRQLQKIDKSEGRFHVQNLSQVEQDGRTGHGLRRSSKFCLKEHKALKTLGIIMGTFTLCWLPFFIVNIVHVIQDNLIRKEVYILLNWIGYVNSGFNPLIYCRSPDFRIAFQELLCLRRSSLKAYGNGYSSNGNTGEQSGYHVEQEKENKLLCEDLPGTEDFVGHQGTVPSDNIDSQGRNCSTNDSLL
T2 sequence (P20309 whole entry): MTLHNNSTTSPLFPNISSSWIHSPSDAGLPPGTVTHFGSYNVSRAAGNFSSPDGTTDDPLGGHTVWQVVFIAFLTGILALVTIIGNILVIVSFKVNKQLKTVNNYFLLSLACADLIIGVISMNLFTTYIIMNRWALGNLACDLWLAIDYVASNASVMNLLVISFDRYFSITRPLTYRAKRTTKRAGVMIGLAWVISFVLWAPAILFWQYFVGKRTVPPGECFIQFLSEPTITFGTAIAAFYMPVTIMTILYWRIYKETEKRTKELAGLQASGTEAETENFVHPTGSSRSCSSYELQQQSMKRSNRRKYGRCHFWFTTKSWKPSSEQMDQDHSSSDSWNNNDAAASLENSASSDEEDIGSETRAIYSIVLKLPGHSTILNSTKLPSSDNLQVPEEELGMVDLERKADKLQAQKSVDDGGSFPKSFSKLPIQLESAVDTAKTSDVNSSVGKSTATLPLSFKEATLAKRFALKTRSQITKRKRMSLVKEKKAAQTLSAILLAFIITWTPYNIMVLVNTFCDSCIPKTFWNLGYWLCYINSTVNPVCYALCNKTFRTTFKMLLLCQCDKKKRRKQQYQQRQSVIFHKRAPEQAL

One may read the EC50 as the concentration at which the effect is half-maximal. High values mean a need for much substance, low ones an effect from little substance. As usually defined, the IC50 is the concentration at which inhibition is half-maximal. As for `COc1cc(NC(=O)CCCc2ccc(NC(=O)O[C@@H]3C[C@@H]4[C@H]5O[C@H]5[C@H](C3)[N+]4(C)C)c(-c3ccccc3)c2)c(Cl)cc1CNC[C@H](O)c1ccc(O)c2[nH]c(=O)ccc12` [Example 55, (1R,2R,4S,5S,7S)-7-({[4-(3-{[2-chloro-4-({[(2R)-2-hydroxy-2-(8-hydroxy-2-oxo-1,2-dihydroquinolin-5-yl)ethyl]amino}methyl)-5-methoxyphenyl]carbamoyl}propyl)-2-phenylphenyl]carbamoyl}oxy)-9,9-dimethyl-3-oxa-9-azatricyclo[3.3.1.0^2,4]nonan-9-ium trifluoroacetate], a half-maximal effect in assay [1] (EC50) was put at 0.2 nM. The IC50 in assay [2] was 51.8 nM.

The compound `COc1cc(CNC[C@H](O)c2ccc(O)c3[nH]c(=O)ccc23)ccc1NC(=O)CCCc1ccc(-c2ccccc2)c(NC(=O)OC2C[C@@H]3[C@H]4O[C@H]4[C@H](C2)[N+]3(C)C)c1` (stereo partly drawn) [Example 38, (1R,2R,4S,5S,7S)-7-({[5-(3-{[4-({[(2R)-2-hydroxy-2-(8-hydroxy-2-oxo-1,2-dihydroquinolin-5-yl)ethyl]amino}methyl)-2-methoxyphenyl]carbamoyl}propyl)-2-phenylphenyl]carbamoyl}oxy)-9,9-dimethyl-3-oxa-9-azatricyclo[3.3.1.0^2,4]nonan-9-ium trifluoroacetate] gave an EC50 in assay [1] of 10.6 nM. Also, the IC50 in assay [2] is 15.6 nM.

In turn, `C[N+]1(C)CCC(OC(=O)Nc2cc(CCCCOc3ccc(CNC[C@H](O)c4ccc(O)c5[nH]c(=O)ccc45)cc3)ccc2-c2ccccc2)CC1` [Example 61, 4-{[(5-{4-[4-({[(2R)-2-hydroxy-2-(8-hydroxy-2-oxo-1,2-dihydroquinolin-5-yl)ethyl]amino}methyl)phenoxy]butyl}-2-phenylphenyl)carbamoyl]oxy}-1,1-dimethylpiperidin-1-ium trifluoroacetate] came in with an EC50 in assay [1] of 8.7 nM. Also, the IC50 in assay [2] worked out at 37.8 nM.

As for `C[N+]1(C)[C@@H]2CC(OC(=O)Nc3cc(CCC(=O)Nc4ccc(CNC[C@H](O)c5ccc(O)c6[nH]c(=O)ccc56)cc4Cl)ccc3-c3ccccc3)C[C@H]1[C@@H]1O[C@@H]12` (stereo partly drawn) [Example 44, (1R,2R,4S,5S,7S)-7-({[5-(2-{[2-chloro-4-({[(2R)-2-hydroxy-2-(8-hydroxy-2-oxo-1,2-dihydroquinolin-5yl)ethyl]amino}methyl)phenyl]carbamoyl}ethyl)-2-phenylphenyl]carbamoyl}oxy)-9,9-dimethyl-3-oxa-9-azatricyclo[3.3.1.0^2,4]nonan-9-ium trifluoroacetate], the midpoint of the response in assay [1], the EC50, lay at 1.7 nM. The IC50 in assay [2] worked out at 13.9 nM.

In turn, `C[N+]1(C)[C@@H]2CC(OC(=O)Nc3cc(CCCC(=O)Nc4ccc(CNC[C@H](O)c5ccc(O)c6[nH]c(=O)ccc56)cc4Cl)ccc3-c3ccccc3)C[C@H]1[C@@H]1O[C@@H]12` (stereo partly drawn) [Example 37, (1R,2R,4S,5S,7S)-7-({[5-(3-{[2-chloro-4-({[(2R)-2-hydroxy-2-(8-hydroxy-2-oxo-1,2-dihydroquinolin-5-yl)ethyl]amino}methyl)phenyl]carbamoyl}propyl)-2-phenylphenyl]carbamoyl}oxy)-9,9-dimethyl-3-oxa-9-azatricyclo[3.3.1.0^2,4]nonan-9-ium trifluoroacetate] had an EC50 in assay [1] of 4 nM. Moreover, the IC50 in assay [2] was 18.2 nM.

Regarding `COc1cc(NC(=O)CCCCc2ccc(-c3ccccc3)c(NC(=O)OC3C[C@@H]4[C@H]5O[C@H]5[C@H](C3)[N+]4(C)C)c2)c(Cl)cc1CNC[C@H](O)c1ccc(O)c2[nH]c(=O)ccc12` (stereo partly drawn) [Example 52, (1R,2R,4S,5S,7S)-7-({[5-(4-{[2-chloro-4-({[(2R)-2-hydroxy-2-(8-hydroxy-2-oxo-1,2-dihydroquinolin-5-yl)ethyl]amino}methyl)-5-methoxyphenyl]carbamoyl}butyl)-2-phenylphenyl]carbamoyl}oxy)-9,9-dimethyl-3-oxa-9-azatricyclo[3.3.1.0^2,4]nonan-9-ium trifluoro acetate], in assay [1], a half-maximal response (EC50) required 0.4 nM. In addition, the IC50 in assay [2] turned out to be 32.8 nM.

In the case of `C[N+]1(C)CCC(OC(=O)Nc2cc(CCCCCCCCCNC[C@H](O)c3ccc(O)c4[nH]c(=O)ccc34)ccc2-c2ccccc2)CC1` [Example 76, 4-({[5-(9-{[(2R)-2-hydroxy-2-(8-hydroxy-2-oxo-1,2-dihydroquinolin-5-yl)ethyl]amino}nonyl)-2-phenylphenyl]carbamoyl}oxy)-1,1-dimethylpiperidin-1-ium trifluoroacetate], in assay [1], the EC50 is 14.1 nM. Moreover, the IC50 in assay [2] was determined as 38 nM.

Regarding `COc1cc(CNC[C@H](O)c2ccc(O)c3[nH]c(=O)ccc23)ccc1NC(=O)CCCc1ccc(-c2ccccc2)c(NC(=O)OC2CC[N+](C)(C)CC2)c1` [Example 21, 4-({[5-(3-{[4-({[(2R)-2-hydroxy-2-(8-hydroxy-2-oxo-1,2-dihydroquinolin-5-yl)ethyl]amino}methyl)-2-methoxyphenyl]carbamoyl}propyl)-2-phenylphenyl]carbamoyl}oxy)-1,1-dimethylpiperidin-1-ium trifluoroacetate], a half-maximal effect in assay [1] (EC50) was put at 3.8 nM. Further, the IC50 in assay [2] is 16.8 nM.

As to `COc1cc(NC(=O)CCc2ccc(-c3ccccc3)c(NC(=O)O[C@@H]3C[C@@H]4[C@H]5O[C@H]5[C@H](C3)[N+]4(C)C)c2)c(Cl)cc1CNC[C@H](O)c1ccc(O)c2[nH]c(=O)ccc12` [Example 46, (1R,2R,4S,5S,7S)-7-({[5-(2-{[2-chloro-4-({[(2R)-2-hydroxy-2-(8-hydroxy-2-oxo-1,2-dihydroquinolin-5-yl)ethyl]amino}methyl)-5-methoxyphenyl]carbamoyl}ethyl)-2-phenylphenyl]carbamoyl}oxy)-9,9-dimethyl-3-oxa-9-azatricyclo[3.3.1.0^2,4]nonan-9-ium trifluoroacetate], the EC50 in assay [1] was determined as 1.4 nM. Besides, the IC50 in assay [2] amounted to 16.5 nM.

In assay [1], `C[N+]1(C)CCC(OC(=O)Nc2cc(CCCC(=O)Nc3ccc(CNC[C@H](O)c4ccc(O)c5[nH]c(=O)ccc45)cc3Br)ccc2-c2ccccc2)CC1` [Example 30, 4-({[5-(3-{[2-bromo-4-({[(2R)-2-hydroxy-2-(8-hydroxy-2-oxo-1,2-dihydroquinolin-5-yl)ethyl]amino}methyl)phenyl]carbamoyl}propyl)-2-phenylphenyl]carbamoyl}oxy)-1,1-dimethylpiperidin-1-ium trifluoroacetate] returned an EC50 of 0.5 nM. The IC50 in assay [2] amounted to 12.9 nM.

`C[N+]1(C)CCC(OC(=O)Nc2cc(CCC(=O)Nc3ccc(CNC[C@H](O)c4ccc(O)c5[nH]c(=O)ccc45)c(F)c3)ccc2-c2ccccc2)CC1` [Example 7, 4-({[5-(2-{[3-fluoro-4-({[(2R)-2-hydroxy-2-(8-hydroxy-2-oxo-1,2-dihydroquinolin-5-yl)ethyl]amino}methyl)phenyl]carbamoyl}ethyl)-2-phenylphenyl]carbamoyl}oxy)-1,1-dimethylpiperidin-1-ium trifluoro acetate] came in with an EC50 in assay [1] of 5.1 nM. In assay [2], the IC50 turned out to be 14.5 nM.

In assay [1], `COc1cc(NC(=O)CCCc2ccc(NC(=O)O[C@@H]3C[C@@H]4[C@H]5O[C@H]5[C@H](C3)[N+]4(C)C)c(-c3ccccc3)c2)c(Br)cc1CNC[C@H](O)c1ccc(O)c2[nH]c(=O)ccc12` [Example 70, (1R,2R,4S,5S,7S)-7-({[4-(3-{[2-bromo-4-({[(2R)-2-hydroxy-2-(8-hydroxy-2-oxo-1,2-dihydroquinolin-5-yl)ethyl]amino}methyl)-5-methoxyphenyl]carbamoyl}propyl)-2-phenylphenyl]carbamoyl}oxy)-9,9-dimethyl-3-oxa-9-azatricyclo[3.3.1.0^2,4]nonan-9-ium trifluoroacetate] gave an EC50 of 0.2 nM. In assay [2], the IC50 was 60.3 nM.

In assay [1], `Cc1cc(CNC[C@H](O)c2ccc(O)c3[nH]c(=O)ccc23)ccc1NC(=O)CCc1ccc(-c2ccccc2)c(NC(=O)OC2CC[N+](C)(C)CC2)c1` [Example 11, 4-({[5-(2-{[4-({[(2R)-2-hydroxy-2-(8-hydroxy-2-oxo-1,2-dihydroquinolin-5-yl)ethyl]amino}methyl)-2-methylphenyl]carbamoyl}ethyl)-2-phenylphenyl]carbamoyl}oxy)-1,1-dimethylpiperidin-1-ium trifluoroacetate] displayed an EC50 of 3.7 nM. The IC50 in assay [2] amounted to 9.7 nM.

On to `C[N+]1(C)CCC(OC(=O)Nc2cc(CCC(=O)Nc3ccc(CNC[C@H](O)c4ccc(O)c5[nH]c(=O)ccc45)cn3)ccc2-c2ccccc2)CC1` [Example 17, 4-({[5-(2-{[5-({[(2R)-2-hydroxy-2-(8-hydroxy-2-oxo-1,2-dihydroquinolin-5-yl)ethyl]amino}methyl)pyridin-2-yl]carbamoyl}ethyl)-2-phenylphenyl]carbamoyl}oxy)-1,1-dimethylpiperidin-1-ium trifluoroacetate], for which, in assay [1], the EC50 is 5.9 nM. Further, the IC50 in assay [2] was 11.4 nM.

Consider `C[N+]1(C)CCC(OC(=O)Nc2cc(CCC(=O)Nc3ccc(CNC[C@H](O)c4ccc(O)c5[nH]c(=O)ccc45)cc3Cl)ccc2-c2ccccc2)CC1` [Example 9, 4-({[5-(2-{[2-chloro-({[(2R)-2-hydroxy-2-(8-hydroxy-2-oxo-1,2-dihydroquinolin-5-yl)ethyl]amino}methyl)phenyl]carbamoyl}ethyl)-2-phenylphenyl]carbamoyl}oxy)-1,1-dimethylpiperidin-1-ium trifluoroacetate], for which the EC50 in assay [1] worked out at 1.9 nM. In assay [2], the IC50 was determined as 10.1 nM.

In turn, `C[N+]1(C)CCC(OC(=O)Nc2cc(CCC(=O)Nc3ccc(CCCNC[C@H](O)c4ccc(O)c5[nH]c(=O)ccc45)cc3)ccc2-c2ccccc2)CC1` [Example 62, 4-({[5-(2-{[4-(3-{[(2R)-2-hydroxy-2-(8-hydroxy-2-oxo-1,2-dihydroquinolin-5-yl)ethyl]amino}propyl)phenyl]carbamoyl}ethyl)-2-phenylphenyl]carbamoyl}oxy)-1,1-dimethylpiperidin-1-ium trifluoroacetate] came in with an EC50 in assay [1] of 1.5 nM. Also, in assay [2], the IC50 was 51.3 nM.
